Test system: lung cancer cell lines A549, NCI-H146 and NCI-H358
Assay: Reactivation of 20 identified genes by treatment of demethylating agent (gene expression)
Format: cell-based
Details: lung cancer cells treated with DAC compared with untreated cells; FIG. 4B
Method: Separately, lung cancer cell lines such as A549, NCI-H146 and NCI-H358 are treated with a demethylating agent DAC and assayed for reactivation of genes that are normally repressed in tumor cells. Overlapping genes between the tumor suppressed gene set and the demethylation reactivated gene set are considered to be candidate genes for lung cancer biomarkers. One hundred six (106) such overlapping genes were found (FIG. 1). Methylation sensitive enzyme/nucleic acid sequence based amplification analysis such as Hpa II Mspl enzyme digestion/PCR (or enzyme digestion post-PCR) further removed a few other genes that were not methylated in any of the lung cancer cell lines. To further confirm biochemically that the candidate gene was indeed methylated in tumor cells, bisulfite sequencing assays were conducted and methylation of the final 20 genes was verified.
Gene expression profiles of the 20 genes were created. The expression level of the 20 genes was measured in lung cancer cell lines treated with DAC (FIG. 4B). Methylation status of the genes was also measured using methylation sensitive enzyme/nucleic acid sequence based amplification analysis such as Hpa II/MspI enzyme digestion/PCR (or enzyme digestion post-PCR) method on lung cancer cell lines and the results for the 20 genes is shown in FIG. 4A. The identified genes are not methylated in normal cells. […]

Nc1ncn([C@H]2C[C@H](O)[C@@H](CO)O2)c(=O)n1 [DAC, 5 aza 2′-deoxycytidine]
gene expression of the 20 identified genes in lung cancer cells treated with demethylating agent: reactivated
